Experiments:
EFSCs = test: Directed differentiation of eye field stem cells into ocular neural crest stem cells; format: cell-based, human; settings: 3 μM in NCSC induction medium; after a week of induction
Protocol: Directed differentiation of eye field stem cells into ocular neural crest stem cells. […] The in vitro derivation of neural crest stem cells from PSCs has been previously described (Chambers et al., 2013; Lee et al., 2007). It was reasoned that, if EFSCs could be primed toward ocular neural crest lineage, the cells could serve as a direct and renewable source to generate CECs in culture. To direct EFSCs toward neural crest fate, EFSCs were seeded at low density, and neural crest lineage specification was initiated in NCSC induction medium supplemented with the presence of 3 μM CHIR 99021. […] Immunostaining also detected the expression of nuclear translocation of beta-catenin (FIG. 4C), an indication of increased WNT canonical signaling during neural crest formation.

EFSC-derived NCSCs = test: Differentiation of CECs from ocular neural crest stem cells; format: cell-based, human; settings: added to the differentiation medium
Protocol: Differentiation of CECs from ocular neural crest stem cells. In order to test if CECs could be induced from the EFSC-derived NCSCs directly in vitro, NCSCs were seeded at low cell density on an FNC coated plate. […] They remained proliferative and formed a relatively homogenous monolayer of cells after a few passages (FIG. 5B). To further characterize the NCSC-derived CEC sheets, immunostaining for several typical CEC markers including tight junction protein 1 (TJP1/ZO-1), N-Cadherin, and Na+/K+ ATPase was performed (FIG. 5C).

[1] = test system: rabbit corneal endothelium; test: Rabbit corneal endothelium injury model; format: in vivo; settings: compared
CEC = CEC migration, proliferation and wound healing with ROCK inhibitor; format: cell-based; settings: compared with Y-27632
[2] = test system: corneal endothelial cells (CECs); settings: cited from earlier work

For Cc1c[nH]c(-c2cnc(NCCNc3ccc(C#N)cn3)nc2-c2ccc(Cl)cc2Cl)n1 [CHIR 99021], the “expression of NCSC surface marker HNK-1” value (EFSCs) was “majority of EFSCs start to express a typical NCSC surface marker HNK-1”.

For Cc1cncc2cccc(S(=O)(=O)N3CCCNC[C@@H]3C)c12 [H-1125], the “effect on differentiation of CECs” value (EFSC-derived NCSCs) was “improve the differentiation of CECs”, the wound healing effect [1] was “better wound healing effect” and the “effect on CEC migration, proliferation and wound healing” value (CEC) was “more significant stimulatory effect”.

In the case of C[C@@H](N)[C@H]1CC[C@H](C(=O)Nc2ccncc2)CC1 [Y-27632], the “apoptosis of CECs” value [2] is listed as “inhibition of apoptosis”, the “proliferation of corneal endothelial cells (CECs)” value [2] is listed as “increased proliferation” and the “corneal endothelial wound healing” value ([2]; in vitro and in vivo) is listed as “enhanced corneal endothelial wound healing”.

From patent US11781110B2, “Induction of corneal endothelial cells” (The Regents of the University of California, priority 2016, dated 2023)
